Assay results reported in US20260125375A1 (Pfizer Inc., priority 2022, published 2026).
Like-named read-outs stand apart in the source and are kept apart here.

How the values were obtained:
CBL-B (residues 36-427) = molecular target: T1, CBL-B (residues 36-427) (Homo sapiens, UniProt Q13191); experiment: Ligand Displacement Assay (LDA), HTRF competitive binding against BODIPY-labeled fluorescent tracer, CBL-B; details: geometric mean of the number of tests, read-out: CBL-B Ki (nM) GMean
T1 construct: Purified CBL-B (residues 36-427) and C-CBL (residues 46-435) proteins from baculovirus-infected insect cells; made in house; host or cells: baculovirus-infected insect cells
Method in brief: (§1)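 First, the insect-cell-expressed protein is biotinylated at its amino-terminal AviTag with BirA and coupled to SA-Tb. Next, the tracer KD is determined for each protein. Finally, compounds are titrated three-fold in duplicate […], at 2% DMSO, and Ki is reported as a geometric mean.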

C-CBL (residues 46-435) = molecular target: T2, C-CBL (residues 46-435) (Homo sapiens, UniProt P22681); experiment: Ligand Displacement Assay (LDA), HTRF competitive binding against BODIPY-labeled fluorescent tracer, C-CBL; details: geometric mean of the number of tests, read-out: C-CBL Ki (nM) GMean
T2 construct: Purified CBL-B (residues 36-427) and C-CBL (residues 46-435) proteins from baculovirus-infected insect cells; made in house; host or cells: baculovirus-infected insect cells
T2 sequence (P22681 46-435): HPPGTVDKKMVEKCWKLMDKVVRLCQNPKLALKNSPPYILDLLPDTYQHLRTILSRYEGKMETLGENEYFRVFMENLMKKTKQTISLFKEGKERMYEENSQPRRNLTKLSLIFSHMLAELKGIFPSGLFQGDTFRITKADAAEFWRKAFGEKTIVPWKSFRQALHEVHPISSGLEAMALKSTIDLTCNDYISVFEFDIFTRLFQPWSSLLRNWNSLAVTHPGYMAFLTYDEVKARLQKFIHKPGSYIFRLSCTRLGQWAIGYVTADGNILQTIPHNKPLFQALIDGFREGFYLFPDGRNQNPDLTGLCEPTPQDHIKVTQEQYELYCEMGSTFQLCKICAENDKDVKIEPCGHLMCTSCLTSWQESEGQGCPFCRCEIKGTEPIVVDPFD
Method in brief: as §1

C-CBL = molecular target: T3, C-CBL (Homo sapiens, UniProt P22681); experiment: Jurkat HiBit-IL2 assay (CBL-B KO), reporter cell line expressing C-CBL only; type: cell-based; details: geometric mean, read-out: CBL-B KO EC50 (nM) GMean
T3 construct: endogenous in cells; host or cells: Jurkat HiBit-IL2 reporter cells, CBL-B knocked out by CRISPR
From the text: (§2) Jurkat HiBit-IL2 Assay (WT, c-CBL KO, CBL-B KO)
(§3) The purpose of the Jurkat HiBit-IL2 assay is to evaluate the effect of the inhibition of CBL-B and/or C-CBL on TCR/CD28 stimulated interleukin-2 (IL-2) secretion.
(§4) The expression of IL-2 can then be accurately measured by HiBit luciferase assay. Further, C-CBL or CBL-B was knocked out by CRISPR respectively in this Jurkat HiBit-IL2 reporter cell line to create reporter cell line expressing CBL-B only (c-CBL knockout (KO)) or C-CBL only (CBL-B KO).
(§5) All three reporter cell lines were maintained in RPMI-1640 media with GlutaMax, 10% fetal bovine serum, 100 units/ml of penicillin, and 100 μg/ml of streptomycin at 37° C., 5% CO2, at a cell density 1×10e5-2×10e6 viable cells/ml. Serial diluted compounds in DMSO (40 nl/well, final 0.1% DMSO in assay cell culture) were plated into 384-well white-wall clear-bottom cell culture plates. Reporter cells were pelleted and resuspended in fresh cell culture medium to 0.66×10e6 cells/ml and added to the assay plate at 30 μl/well (20,000 cells/well). The cells were incubated with compounds for 1 hour at 37° C., 5% CO2. 10 μl/well of anti-CD3 antibody (OKT3) and anti-CD28 antibody (CD28.2) prediluted in fresh cell culture medium at 4× final concentration (anti-CD3 mAb: 4 μg/ml; anti-CD28 mAb: 8 μg/ml) was added into the cells (final concentration of anti-CD3 mAb: 1 μg/ml; anti-CD28 mAb: 2 μg/ml). The cells were cultured for another 4 hours at 37° C., 5% CO2. The Nano-Glo HiBiT Lytic Reagent was prepared following the manufacturer's protocol. 20 ul/well of the Nano-Glo HiBiT Lytic Reagent was added into the reporter cell culture assay plate and incubated at room temperature (20-25° C.) for 15 minutes. The plates were read on a Perkin-Elmer EnVision plate reader with 0.1 second integration time. Data were normalized to “Fold of Effect” with the anti-CD3 and anti-CD28 antibodies only samples as the baseline activation level and EC50 was calculated. The EC50 (nM) values reported are the geometric means (GMean) of the number of tests conducted.

CBL-B = molecular target: T4, CBL-B (Homo sapiens, UniProt Q13191); experiment: Jurkat HiBit-IL2 assay (c-CBL KO), reporter cell line expressing CBL-B only; type: cell-based; details: geometric mean, read-out: C-CBL KO EC50 (nM) GMean
T4 construct: endogenous in cells; host or cells: Jurkat HiBit-IL2 reporter cells, C-CBL knocked out by CRISPR
From the text: as §2, §3, §4, §5

[1] = CBL-B KO (expressing C-CBL only), Table 16b (further repetition)
[2] = C-CBL KO (expressing CBL-B only), Table 16b (further repetition)
[3] = CBL-B KO (C-CBL only), anti-CD3/anti-CD28 stimulation 4 hours, Table 16a
[4] = c-CBL KO (CBL-B only), anti-CD3/anti-CD28 stimulation 4 hours, Table 16a

SMILES	Ki (CBL-B (residues 36-427))	Ki (C-CBL (residues 46-435))	EC50 (C-CBL; [1])	EC50 (CBL-B; [2])	EC50 (C-CBL; [3])	EC50 (CBL-B; [4])
C[C@H](NC1CCC1)c1nc(C(F)(F)F)cc2c(-c3cccc([C@H](c4nncn4C)C4COC4)c3)n[nH]c12 (single isomer, unassigned) [Example C123, N-{(1ξ)-1-[3-{3-[(ξ)-(4-methyl-4H-1,2,4-triazol-3-yl)(oxetan-3-yl)methyl]phenyl}-5-(trifluoromethyl)-1H-pyrazolo[3,4-c]pyridin-7-yl]ethyl}cyclobutanamine]	19.5 nM	189 nM	1070 nM	185 nM		
CC(NC[C@H](C)O)c1nccc2c(-c3cccc([C@H](c4nncn4C)C4CCC4)c3)n[nH]c12 (single isomer, unassigned) [Example C124]	7.9 nM	109 nM	3280 nM	348 nM		
C[C@H](NC(C)(C)CO)c1nc(C(F)(F)F)cc2c(-c3cccc([C@H](c4nncn4C)C4CCC4)c3)n[nH]c12 (single isomer, unassigned) [Example D17]	1.4 nM	33.2 nM	552 nM	43 nM	270 nM	19 nM
C[C@H](O)CN[C@H](C)c1nc(C(F)(F)F)cc2c(-c3cccc([C@H](c4nncn4C)C4CCC4)c3)n[nH]c12 (single isomer, unassigned) [Example D18]	1 nM	9 nM	137 nM	22 nM	96 nM	10 nM
C[C@H](N[C@@H]1COC[C@@H]1O)c1nc(C(F)(F)F)cc2c(-c3cccc([C@H](c4nncn4C)C4CCC4)c3)n[nH]c12 (single isomer, unassigned) [Example D20]	1.7 nM	2.3 nM	31 nM	11 nM	30 nM	4 nM
C[C@H](N[C@H]1CC[C@@H]1O)c1nc(C(F)(F)F)cc2c(-c3cccc([C@H](c4nncn4C)C4CCC4)c3)n[nH]c12 (single isomer, unassigned) [Example D21]	5.4 nM	68.1 nM	1150 nM	107 nM	420 nM	39 nM
C[C@H](N[C@@H]1CC[C@H]1O)c1nc(C(F)(F)F)cc2c(-c3cccc([C@H](c4nncn4C)C4CCC4)c3)n[nH]c12 (single isomer, unassigned) [Example D23]	1.8 nM	9.9 nM	124 nM	21 nM	63 nM	6 nM
C[C@@H](N[C@@H]1CC[C@H]1O)c1nc(C(F)(F)F)cc2c(-c3cccc([C@H](c4nncn4C)C4CCC4)c3)n[nH]c12 (single isomer, unassigned) [Example D24]	2.2 nM	22.3 nM	452 nM	58 nM	285 nM	22 nM
C[C@H](NC[C@@H](C)O)c1nc(C(F)(F)F)cc2c(-c3cccc([C@H](c4nncn4C)C4CCC4)c3)n[nH]c12 (single isomer, unassigned) [Example D25]	6.4 nM	51.1 nM	359 nM	101 nM	174 nM	20 nM
C[C@@H](O)CN[C@H](C)c1nc(C(F)(F)F)cc2c(-c3cccc([C@H](c4nncn4C)C4CCC4)c3)n[nH]c12 (single isomer, unassigned) [Example D26]	1.8 nM	14 nM	180 nM	30 nM	122 nM	9 nM
